In assay [1] the target is T1, Alpha-2A adrenergic receptor (Homo sapiens, UniProt P08913).
T1 sequence (P08913 whole entry): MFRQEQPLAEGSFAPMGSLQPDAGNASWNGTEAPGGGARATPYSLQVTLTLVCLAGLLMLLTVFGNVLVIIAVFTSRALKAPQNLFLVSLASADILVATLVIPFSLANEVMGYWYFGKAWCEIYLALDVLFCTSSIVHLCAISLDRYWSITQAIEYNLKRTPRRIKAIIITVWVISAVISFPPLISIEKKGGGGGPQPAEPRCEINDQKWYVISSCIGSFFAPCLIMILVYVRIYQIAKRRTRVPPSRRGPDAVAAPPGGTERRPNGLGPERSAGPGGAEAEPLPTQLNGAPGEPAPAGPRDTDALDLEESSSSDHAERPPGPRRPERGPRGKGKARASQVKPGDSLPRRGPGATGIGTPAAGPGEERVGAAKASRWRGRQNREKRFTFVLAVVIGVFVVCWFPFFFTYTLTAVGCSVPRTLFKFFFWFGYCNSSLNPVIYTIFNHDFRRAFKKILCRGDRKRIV
It is filed as functional, cell-based.

Assay [2] addresses Beta-1 adrenergic receptor (Homo sapiens, UniProt P08588). It is filed as functional.
The target in another assay is T2, Endothelin-1 receptor (Homo sapiens, UniProt P25101).
T2 sequence (P25101 whole entry): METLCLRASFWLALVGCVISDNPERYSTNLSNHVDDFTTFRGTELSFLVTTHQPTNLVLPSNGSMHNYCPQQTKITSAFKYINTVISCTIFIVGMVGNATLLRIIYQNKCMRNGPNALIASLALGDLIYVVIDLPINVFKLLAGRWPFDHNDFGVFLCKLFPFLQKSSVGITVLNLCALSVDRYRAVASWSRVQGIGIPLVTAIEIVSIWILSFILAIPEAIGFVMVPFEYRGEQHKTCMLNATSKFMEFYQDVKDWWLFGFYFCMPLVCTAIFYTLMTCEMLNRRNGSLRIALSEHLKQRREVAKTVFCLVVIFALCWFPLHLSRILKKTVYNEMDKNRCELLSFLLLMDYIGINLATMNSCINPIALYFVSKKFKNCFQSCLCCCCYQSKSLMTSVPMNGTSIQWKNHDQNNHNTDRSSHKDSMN

Assay [3] addresses Gamma-aminobutyric acid receptor subunit alpha-1 (Rattus norvegicus, UniProt P62813).
For assay [4], the target named is T3, 5-hydroxytryptamine receptor 3A (Homo sapiens, UniProt P46098).
T3 sequence (P46098 whole entry): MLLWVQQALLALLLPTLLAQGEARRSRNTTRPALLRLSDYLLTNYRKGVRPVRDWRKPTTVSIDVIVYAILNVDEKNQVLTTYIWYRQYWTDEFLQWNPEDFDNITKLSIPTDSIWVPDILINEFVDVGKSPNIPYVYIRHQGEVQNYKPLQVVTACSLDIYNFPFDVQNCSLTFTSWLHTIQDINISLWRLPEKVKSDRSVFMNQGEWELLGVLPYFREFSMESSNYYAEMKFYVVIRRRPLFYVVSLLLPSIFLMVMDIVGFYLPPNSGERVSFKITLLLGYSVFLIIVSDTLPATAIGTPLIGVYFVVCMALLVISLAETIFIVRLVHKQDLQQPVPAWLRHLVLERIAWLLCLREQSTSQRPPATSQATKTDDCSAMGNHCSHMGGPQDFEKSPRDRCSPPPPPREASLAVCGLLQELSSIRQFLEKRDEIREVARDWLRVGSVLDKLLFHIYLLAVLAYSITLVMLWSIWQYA
It is filed as functional.

A further assay deals with Motilin receptor (Homo sapiens, UniProt O43193).
In assay [5] the target is T4, Equilibrative nucleoside transporter 1 (Homo sapiens, UniProt Q99808).
T4 sequence (Q99808 whole entry): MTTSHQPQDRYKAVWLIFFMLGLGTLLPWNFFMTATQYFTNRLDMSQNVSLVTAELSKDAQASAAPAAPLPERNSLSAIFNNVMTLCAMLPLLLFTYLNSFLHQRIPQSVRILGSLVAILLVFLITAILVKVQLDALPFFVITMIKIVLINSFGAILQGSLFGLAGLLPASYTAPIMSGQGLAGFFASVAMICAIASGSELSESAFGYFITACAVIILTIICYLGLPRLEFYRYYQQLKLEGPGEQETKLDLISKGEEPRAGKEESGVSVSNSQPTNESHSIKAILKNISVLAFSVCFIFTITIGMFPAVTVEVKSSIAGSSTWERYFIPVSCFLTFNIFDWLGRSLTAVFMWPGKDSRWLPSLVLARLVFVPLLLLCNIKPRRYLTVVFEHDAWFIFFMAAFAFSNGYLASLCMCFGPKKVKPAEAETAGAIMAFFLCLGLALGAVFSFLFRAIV

For the next assay, the target named is D(3) dopamine receptor (Homo sapiens, UniProt P35462).
Assay [6] deals with T5, Amine oxidase [flavin-containing] A (Homo sapiens, UniProt P21397).
T5 sequence (P21397 whole entry): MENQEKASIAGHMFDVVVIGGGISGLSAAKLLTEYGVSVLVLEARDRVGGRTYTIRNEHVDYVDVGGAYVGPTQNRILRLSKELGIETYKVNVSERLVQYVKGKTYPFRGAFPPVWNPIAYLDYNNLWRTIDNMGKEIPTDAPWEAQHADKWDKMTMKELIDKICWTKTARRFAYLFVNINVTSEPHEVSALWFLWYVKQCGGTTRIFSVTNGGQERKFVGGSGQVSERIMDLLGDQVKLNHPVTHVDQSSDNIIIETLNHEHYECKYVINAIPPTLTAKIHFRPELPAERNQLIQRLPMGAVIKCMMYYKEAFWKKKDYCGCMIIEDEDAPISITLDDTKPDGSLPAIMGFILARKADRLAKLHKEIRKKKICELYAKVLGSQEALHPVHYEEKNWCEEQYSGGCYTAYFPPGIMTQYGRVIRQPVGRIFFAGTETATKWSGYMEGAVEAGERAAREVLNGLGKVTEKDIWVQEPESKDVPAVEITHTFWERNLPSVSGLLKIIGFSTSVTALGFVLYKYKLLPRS
It is filed as functional.
Also: assay procedure not described here.

Sequence of Motilin receptor (O43193 whole entry): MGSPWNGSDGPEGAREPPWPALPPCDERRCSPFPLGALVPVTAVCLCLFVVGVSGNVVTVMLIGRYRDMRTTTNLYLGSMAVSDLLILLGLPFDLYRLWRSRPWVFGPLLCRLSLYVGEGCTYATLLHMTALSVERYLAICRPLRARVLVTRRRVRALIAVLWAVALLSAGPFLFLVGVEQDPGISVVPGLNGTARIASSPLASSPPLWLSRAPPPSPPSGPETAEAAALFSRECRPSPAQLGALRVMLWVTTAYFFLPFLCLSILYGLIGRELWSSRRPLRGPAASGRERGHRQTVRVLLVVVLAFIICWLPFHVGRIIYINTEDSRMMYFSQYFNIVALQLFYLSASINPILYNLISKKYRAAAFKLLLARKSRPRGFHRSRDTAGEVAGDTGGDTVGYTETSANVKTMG
Sequence of Beta-1 adrenergic receptor (P08588 whole entry): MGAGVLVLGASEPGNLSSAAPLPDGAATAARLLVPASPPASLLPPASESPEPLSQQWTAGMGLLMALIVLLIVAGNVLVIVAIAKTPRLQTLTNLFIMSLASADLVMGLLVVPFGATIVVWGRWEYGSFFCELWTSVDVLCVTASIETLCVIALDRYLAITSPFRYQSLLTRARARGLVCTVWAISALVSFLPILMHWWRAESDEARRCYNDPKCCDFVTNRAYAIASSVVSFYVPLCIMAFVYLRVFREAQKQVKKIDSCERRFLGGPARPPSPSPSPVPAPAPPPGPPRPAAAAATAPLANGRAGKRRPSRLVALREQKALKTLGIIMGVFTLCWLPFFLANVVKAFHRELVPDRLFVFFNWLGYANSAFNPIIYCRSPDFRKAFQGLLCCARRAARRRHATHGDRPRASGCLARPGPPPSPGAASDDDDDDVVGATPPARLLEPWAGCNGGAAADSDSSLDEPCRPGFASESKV
Sequence of D(3) dopamine receptor (P35462 whole entry): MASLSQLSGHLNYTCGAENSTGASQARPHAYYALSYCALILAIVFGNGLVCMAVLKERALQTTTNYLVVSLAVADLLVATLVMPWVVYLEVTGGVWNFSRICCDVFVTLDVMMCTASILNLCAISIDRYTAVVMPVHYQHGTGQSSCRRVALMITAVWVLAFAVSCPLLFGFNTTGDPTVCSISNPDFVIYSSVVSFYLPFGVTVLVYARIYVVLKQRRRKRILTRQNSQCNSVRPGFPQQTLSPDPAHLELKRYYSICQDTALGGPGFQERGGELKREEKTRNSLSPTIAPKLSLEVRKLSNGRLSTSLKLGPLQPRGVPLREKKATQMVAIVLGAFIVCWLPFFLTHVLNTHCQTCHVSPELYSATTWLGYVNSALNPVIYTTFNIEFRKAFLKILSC
Sequence of Gamma-aminobutyric acid receptor subunit alpha-1 (P62813 whole entry): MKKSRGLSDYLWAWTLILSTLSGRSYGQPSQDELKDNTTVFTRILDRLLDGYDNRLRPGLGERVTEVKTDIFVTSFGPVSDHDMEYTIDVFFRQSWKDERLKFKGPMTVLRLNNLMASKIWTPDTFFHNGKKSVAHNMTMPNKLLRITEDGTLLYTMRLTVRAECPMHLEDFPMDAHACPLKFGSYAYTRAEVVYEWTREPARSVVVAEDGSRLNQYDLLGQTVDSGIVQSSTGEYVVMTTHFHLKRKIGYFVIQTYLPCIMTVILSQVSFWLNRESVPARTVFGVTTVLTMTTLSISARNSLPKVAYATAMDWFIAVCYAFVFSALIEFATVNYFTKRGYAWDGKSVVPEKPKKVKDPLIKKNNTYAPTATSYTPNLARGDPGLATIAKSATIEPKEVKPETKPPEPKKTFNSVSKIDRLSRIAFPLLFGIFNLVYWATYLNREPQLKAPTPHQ

For `O=C(O)Cc1cn(-c2ccccc2)nc1-c1ccc(Cl)cc1` [LONAZOLAC], the AC50 (in assay [1]; in [2]; at Endothelin-1 receptor; in assay [3]; in [4]; at Motilin receptor) was above 30 µM throughout. Further, the concentration at half-maximal activity (AC50) (in [5]; on D(3) dopamine receptor) was above 30 µM in each case.
As for `O=C1NCCN1CCN1CCC(c2cn(-c3ccc(F)cc3)c3ccc(Cl)cc23)CC1` [SERTINDOLE], the AC50 is above 30 µM on Endothelin-1 receptor; above 30 µM in assay [3]; above 30 µM in [4]; 4.3 µM on Motilin receptor; above 30 µM in assay [5]; 22 µM in assay [6].
In the case of `CCCCN1CCCCC1C(=O)Nc1c(C)cccc1C` (configuration not stated) [BUPIVACAINE], the AC50 (in [1]; in assay [2]; on Endothelin-1 receptor; in [3]; in assay [4]; at Motilin receptor) was above 30 µM throughout. Further, the AC50 (in assay [6]; on D(3) dopamine receptor) was above 30 µM each time.
Take `CCCCCCCCCCCC[N+](C)(C)CCOc1ccccc1` [DOMIPHEN]: the AC50 was 3.1 µM in assay [2]; above 30 µM at Endothelin-1 receptor; above 30 µM in assay [3]; above 30 µM in assay [4]; 3 µM at Motilin receptor; above 30 µM in [5]. For the same compound, the AC50 worked out at 28 µM in assay [6] and 2.1 µM on D(3) dopamine receptor.
`CCCCCCCCOc1ccccc1C(=O)Nc1ccc(C(=O)OCC[N+](C)(CC)CC)cc1` [OTILONIUM BROMIDE]: the AC50 is 11 µM in assay [2]; above 1 µM at Endothelin-1 receptor; above 30 µM in assay [3]; above 30 µM in assay [4]; 5.7 µM on Motilin receptor; 17 µM in assay [5]. Moreover, the AC50 was above 30 µM in assay [6] and 2 µM on D(3) dopamine receptor.
With `COc1ccc(C(=O)N2CCN(c3ccc4c(c3)CCC(=O)N4)CC2)cc1OC` [VESNARINONE], the AC50 (in [1]; in assay [2]; on Endothelin-1 receptor; in [3]; in [4]; on Motilin receptor) was above 30 µM in each case. Further, the half-maximal activity concentration (AC50) (in assay [6]; on D(3) dopamine receptor) was above 30 µM in each case.
For the compound `Cc1c(C(=O)Nc2ccc(N3C[C@@H](C)O[C@@H](C)C3)nc2)cccc1-c1ccc(OC(F)(F)F)cc1` [SONIDEGIB], the AC50 in assay [2] is above 10 µM; on Endothelin-1 receptor, above 30 µM; in [3], above 10 µM; in [4] it was above 10 µM; on Motilin receptor, above 10 µM; in [5], above 30 µM.
Turning to `Cc1c(Cl)cccc1Nc1ccccc1C(=O)O` [TOLFENAMIC ACID], the AC50 in assay [1] was 20 µM; in [2], above 30 µM; on Endothelin-1 receptor, above 30 µM; in assay [3], above 30 µM; in [4] it was above 30 µM; on Motilin receptor, above 30 µM. Moreover, the AC50 (in assay [6]; on D(3) dopamine receptor) was above 30 µM throughout.
Consider `CN1CCc2cccc3c2[C@H]1Cc1ccc(O)c(O)c1-3` [APOMORPHINE], for which the concentration at half-maximal activity (AC50) in [1] was 3.8 µM; in assay [2] it was above 10 µM; on Endothelin-1 receptor, above 30 µM; in assay [3], above 10 µM; on Motilin receptor, above 10 µM; in [5], above 30 µM. In assay [6], the AC50 was above 10 µM.
As for `CCNC(C)Cc1cccc(C(F)(F)F)c1` (configuration not stated) [FENFLURAMINE], the AC50 on Endothelin-1 receptor was above 30 µM; in [3] it was above 10 µM; in [4], above 30 µM; on Motilin receptor, above 10 µM; in [5], above 30 µM; in assay [6], above 10 µM. Besides, the AC50 at D(3) dopamine receptor came to 8 µM.
As for `Nc1ncnc2c1ncn2[C@@H]1O[C@H](COP(=O)(O)O)[C@@H](O)[C@H]1O` [ADENOSINE PHOSPHATE], the AC50 (in assay [1]; in [2]; on Endothelin-1 receptor; in [3]; in [4]; on Motilin receptor) was above 30 µM each time. For the same compound, the AC50 (in [6]; at D(3) dopamine receptor) was above 30 µM each time.

Values taken from ChEMBL document CHEMBL5291721, “A preclinical secondary pharmacology resource illuminates target-adverse drug reaction associations of marketed drugs” (Nat Commun, 2023).
